Entries after “also recorded” stand apart in the source; their conditions may differ.
Columns and labels:
[1] = system: 22RV1 human prostate cancer cells; test: Cell proliferation (cell number by MTT/MTS cleavage) in 22RV1 cells; assay type: cell-based; conditions: 22RV1, 100 nM peptide, 72 h
Procedure: (§1) SHLPs exert distinct effects on cell proliferation. Whether SHLPs have the capacity to influence cell proliferation, in addition to their intrinsic effects on apoptosis induction, was also investigated. Mouse NIT-1 insulinoma β-cells and 22RV1 human prostate cancer cells were serum starved for 24 h, followed by 72 h incubation with 100 nM scrambled control peptide, HN or SHLPs. Cell number, as a measure of cell proliferation, was assessed by cleavage of MTT substrate.
Pro-apoptotic effect on human prostate cancer cells in vitro. To assess the ability of SHLP6 to induce apoptosis in human prostate cancer cells, PC-3, 22RV1 or DU145 cells were incubated in serum free (SF) media for 24 h followed by 24 h incubation with 1 μM scrambled (control) peptide or SHLP6. Apoptosis was assessed by ELISA for fragmentation of histone-associated DNA. In each cell line tested, SHLP6 induced apoptosis by at least 2-fold (FIG. 2), confirming highly significant physiological effects of this novel peptide. To determine whether the effects of SHLP6 were specific to induction of apoptosis, or if it also elicited growth-inhibitory effects, PC-3, DU-145, 22RV1, LAPC4 and LNCaP cells were incubated in SF media for 24 h followed by 72 h incubation with 1 μM SHLP6. Cell number, as a measure of cell proliferation, was assessed by cleavage of MTS substrate.

[2] = system: Mouse NIT-1 insulinoma β-cells; test: Cell proliferation (cell number by MTT/MTS cleavage) in NIT-1 cells; assay type: cell-based; conditions: NIT-1, 100 nM peptide, 72 h
Procedure: as §1

ERK = ERK activation in 22RV1 cells (immunoblotting, ELISA); assay type: cell-based, human; conditions: 22RV1, 100 nM; for ERK activation profile (immunoblotting): 15 min to 24 h
Procedure: Characterization of the intracellular signaling pathways activated by SHLPs. To determine a mechanism for the growth and apoptosis effects of SHLPs, SHLPs were tested for the ability to modulate activation of intracellular signaling pathways. 22RV1 cells in SF media were treated with 100 nM SHLP 1-5 and whole cell extracts were harvested after 15 min, 30 min, 2 h, 4 h, 8 h and 24 h. Proteins were separated by SDS-PAGE and analyzed by immunoblotting.
To test the hypothesis that SHLPs may act in concert to regulate intracellular signaling, 22RV1 cells were co-treated with SHLPs 2 and 3, and ERK activation was assessed.
Since HN causes activation of STAT3, SHLPs 2 and 3 were also tested for effects on STAT3. […] To more accurately quantify the ERK phosphorylation caused by SHLPs 2 and 3, we repeated the experiment as described above but used a commercially available ERK ELISA to assess ERK phosphorylation. Optimal ERK activation by SHLP2 was 9-fold after 24 h, whilst optimal activation by SHLP3 was 12-fold after 2 h (FIG. 5).

[3] = system: Mouse primary cortical neurons; test: Protection of primary cortical neurons from Aβ-induced cell death (Calcein-AM); assay type: cell-based; conditions: 25 μM Aβ1-43, 100 nM peptide, 72 h
Procedure: SHLPs protect neurons from Aβ-induced apoptosis. When it was first discovered, HN was described as a potent neural survival factor with clinical implications as a therapeutic agent against neurodegenerative diseases such as Alzheimer's Disease. Since many of the SHLPs appear to be functionally related to HN, SHLPs were tested as potential neuroprotective factors. Mouse primary cortical neurons were incubated with 25 μM Aβ1-43 in the presence or absence of 100 nM SHLP2 or 3, HNG (positive control) or 1 nM colivelin (positive control). After 72 h, neuronal viability was assessed by Calcein-AM staining followed by fluorescence microscopy (FIG. 13).

biotinylated-HN = biotinylated-HN (Homo sapiens, UniProt Q8IVG9); test: Dot-blot binding to biotinylated-HN; conditions: 2, 5 or 10 nmol peptide dotted on nitrocellulose
biotinylated-HN, sequence (Q8IVG9 whole entry): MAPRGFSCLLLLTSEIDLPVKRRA
Procedure: To test a dimerization hypothesis, we performed a dot-blot using biotinylated-HN. Two, 5 or 10 nmol IGF-I (negative control), HN (positive control) or SHLP peptide were dotted on to nitrocellulose membrane, and their ability to bind to biotinylated-HN was assessed immunologically. […] Specific interactions that occur may be determined using, e.g., dot blots with biotinylated SHLPs, and/or antibodies against specific SHLPs.

HAEC'S = test: Intracellular ROS production (DHE fluorescence) in HAEC; assay type: cell-based; conditions: 0.1 nM peptide over night, oxidized LDL 100 μg protein/ml 30 min
Procedure: SHLPs suppress intracellular production of Reactive Oxygen Species (ROS). ROS production was monitored by following the conversion of the oxidant-sensitive dye dihydroethidine to the fluorescent ethidium (DHE) for measuring the cellular ability to produce Reactive Oxygen Species. HAEC'S plated on glass cover slips were incubated over night with 0.1 nM SHLP2 or SHLP6 versus regular cultured medium. For ROS measurement, cells were incubated for 30 min with 10 μM DHE in HBSS containing calcium magnesium and glucose at 37° c. Then cells were treated with Oxidized LDL 100 μg protein/ml for 30 minutes at 37° c. Samples were imaged under fluorescence microscope with a Texas Red filter corresponding to the fluorescence of DHE. Average fluorescence intensity was used to evaluate the changes of intracellular ROS generation, results are expressed in relative fluorescence unit (RFU) representing average intensity per cell area.

Sequence: MLGYNFSSFPCGTISIAPGFNFYRLYFIWVNGLAKVVW [SHLP3, small humanin-like peptide, mtDNA 1707-1821]
- Cell number as a measure of cell proliferation [1]: much greater effect
- Cell number as a measure of cell proliferation [2]: much greater effect
- Time to ERK activation (ERK): ≤ 2 min
- ERK activation profile (immunoblotting) (ERK): activated ERK rapidly
- Optimal ERK activation (ELISA) (ERK; after 2 h): 12 fold
- Neuronal viability against Aβ-induced cell death [3]: protect the neurons from the cell death; also recorded: function as neuro-protective factors

Sequence: MGVKFFTLSTRFFPSVQRAVPLWTNS [SHLP2, small humanin-like peptide, mtDNA 2092-2170]
- Cell number as a measure of cell proliferation [1]: much greater effect
- Cell number as a measure of cell proliferation [2]: much greater effect
- ERK activation profile (immunoblotting) (ERK): delayed but sustained activation after 8 h
- Optimal ERK activation (ELISA) (ERK; after 24 h): 9 fold
- Binding to biotinylated-HN (dot-blot) (biotinylated-HN): weak interaction; also recorded: binds
- Neuronal viability against Aβ-induced cell death [3]: protect the neurons from the cell death; also recorded: function as neuro-protective factors
- Intracellular ROS production (DHE fluorescence) (HAEC'S): suppresses ROS production; also recorded: suppresses production of reactive oxygen species

Reference: patent publication US8637470B2, “Small humanin-like peptides” (The Regents of the University of California, priority 2008, dated 2014)
